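Compound exposure: 48 hours, 5 concentrations, 96-well plates. GI50 is the concentration that inhibits growth by half. TGI: concentration producing complete growth inhibition.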
How the values were obtained:
Assay in all cases: DTP human tumour cell line panel, 48 h
SF-539 CNS = test system: SF-539 CNS
SNB-75 CNS = test system: SNB-75 CNS
UO-31 renal = test system: UO-31 renal
SW-620 colon = test system: SW-620 colon
LOX IMVI melanoma = test system: LOX IMVI melanoma
SF-295 CNS = test system: SF-295 CNS
MALME-3M melanoma = test system: MALME-3M melanoma
SK-MEL-5 melanoma = test system: SK-MEL-5 melanoma
NCI-H522 lung = test system: NCI-H522 lung
CAKI-1 renal = test system: CAKI-1 renal

| SMILES | GI50 (SF-539 CNS) [µM] | TGI (SF-539 CNS) [µM] | GI50 (SNB-75 CNS) [µM] | TGI (SNB-75 CNS) [µM] | GI50 (UO-31 renal) [µM] | TGI (UO-31 renal) [µM] | GI50 (SW-620 colon) [µM] | TGI (SW-620 colon) [µM] | GI50 (LOX IMVI melanoma) [µM] | TGI (LOX IMVI melanoma) [µM] | GI50 (SF-295 CNS) [µM] | TGI (SF-295 CNS) [µM] | GI50 (MALME-3M melanoma) [µM] | TGI (MALME-3M melanoma) [µM] | GI50 (SK-MEL-5 melanoma) [µM] | TGI (SK-MEL-5 melanoma) [µM] | GI50 (NCI-H522 lung) [µM] | TGI (NCI-H522 lung) [µM] | GI50 (CAKI-1 renal) [µM] | TGI (CAKI-1 renal) [µM] |
| --- | --- | --- | --- | --- | --- | --- | --- | --- | --- | --- | --- | --- | --- | --- | --- | --- | --- | --- | --- | --- |
| CCN1C(=O)N(CC)C2C1NN=c1s/c(=C3\C(=O)N(C)c4ccccc43)c(=O)n12 (stereo not given) | 0.545 | 3.77 | 0.397 | 20.3 | 1.28 | > 100 | 0.58 | > 100 | 0.958 | > 100 | 0.999 | > 28.8 | 0.993 | > 100 | 0.837 | > 89.2 | 0.609 | 33 | 0.448 | 97.4 |
| C[C@H](CS(C)(=O)=O)Nc1ncc2cc(Oc3ccc(F)cc3F)c(=O)n(C)c2n1 | > 25 | > 25 | > 25 | > 25 | > 25 | > 25 | > 25 | > 25 | > 25 | > 25 | > 25 | > 25 | > 25 | > 25 | > 25 | > 25 | > 25 | > 25 | > 25 | > 25 |
| O=C1CCC2(c3ccccc3)Nc3cc(Cl)ccc3N12 (stereo not given) | – | > 100 | – | 64.9 | – | 63.3 | – | > 100 | – | > 100 | – | 96 | – | 75.5 | – | 32.4 | – | > 100 | – | 87.1 |
| Clc1ccc2nc(Oc3ccccc3)cnc2c1 | > 100 | > 100 | 59 | > 100 | > 100 | > 100 | > 100 | > 100 | > 100 | > 100 | > 100 | > 100 | > 100 | > 100 | > 100 | > 100 | > 100 | > 100 | > 100 | > 100 |
| Fc1ccc(Nc2nccc(-c3c(-c4ccc(C(F)(F)F)cc4)nn4ncccc34)n2)cc1F | > 25 | > 25 | > 25 | > 25 | > 25 | > 25 | > 25 | > 25 | > 25 | > 25 | > 18.9 | > 25 | > 25 | > 25 | > 25 | > 25 | > 25 | > 25 | > 25 | > 25 |
| Fc1ccc(Nc2nc(NCCNc3ccnc4cc(Cl)ccc34)nc(N3CCOCC3)n2)cc1 | 3.79 | 15.2 | 3.13 | 16.2 | 3.52 | 16.5 | 4.21 | 16.4 | 2.95 | 10.1 | 4.19 | 15.3 | 2.76 | 4.52 | 2.15 | 4.62 | 4.25 | 15.3 | 5.59 | 19.5 |

Reference: PubChem BioAssay (NCI)
